Measured values published in PubChem BioAssay (NCI).
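Abbreviation: GI50, concentration required for 50% inhibition of growth. TGI: concentration producing complete growth inhibition.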

Columns and labels:
Assay in all cases: NCI tumour cell line growth inhibition, 384-well format
[1] = test system: MCF7 breast
[2] = test system: UO-31 renal
[3] = test system: MALME-3M melanoma
[4] = test system: OVCAR-8 ovarian
[5] = test system: SW-620 colon
[6] = test system: HOP-92 NSCLC
[7] = test system: SF-295 CNS
[8] = test system: UACC-62 melanoma
[9] = test system: BT-549 breast
[10] = test system: M14 melanoma
[11] = test system: OVCAR-3 ovarian
[12] = test system: HCT-15 colon
[13] = test system: COLO 205 colon
[14] = test system: LOX IMVI melanoma
[15] = test system: U251 glioblastoma
[16] = test system: OVCAR-4 ovarian
[17] = test system: HCC-2998 colon
[18] = test system: SK-MEL-5 melanoma
[19] = test system: SK-MEL-2 melanoma
[20] = test system: MOLT-4 leukemia
[21] = test system: RXF 393 renal
[22] = test system: MDA-MB-231 breast
[23] = test system: SNB-19 CNS
[24] = test system: SK-MEL-28 melanoma
[25] = test system: KM12 colon
[26] = test system: MDA-MB-468 breast
[27] = test system: CCRF-CEM leukemia
[28] = test system: NCI-H460 NSCLC
[29] = test system: HCT-116 colon
[30] = test system: NCI-H522 lung
[31] = test system: HL-60(TB) leukemia
[32] = test system: SK-OV-3 ovarian
[33] = test system: CAKI-1 renal
[34] = test system: HT29 colon
[35] = test system: SF-268 CNS
[36] = test system: IGROV1 ovarian
[37] = test system: SR leukemia
[38] = test system: T-47D breast
[39] = test system: UACC-257 melanoma
[40] = test system: NCI/ADR-RES ovarian
[41] = test system: RPMI-8226 leukemia
[42] = test system: DU-145 prostate
[43] = test system: 786-0 renal
[44] = test system: ACHN renal
[45] = test system: NCI-H226 lung
[46] = test system: OVCAR-5 ovarian
[47] = test system: PC-3 prostate
[48] = test system: K-562 leukemia
[49] = test system: A498 renal
[50] = test system: NCI-H322M lung
[51] = test system: TK-10 renal
[52] = test system: MDA-MB-435 melanoma
[53] = test system: A549 NSCLC
[54] = test system: SN12C renal
[55] = test system: SF-539 CNS

C=CC(=O)Nc1cc(Nc2ncc(C(=O)OC(C)C)c(-c3cn(C)c4ccccc34)n2)c(OC)cc1N(C)CCN(C)C
GI50 [1]: 1.71 µM | TGI [1]: 3.11 µM | GI50 [2]: 1.02 µM | TGI [2]: 2.19 µM | GI50 [3]: 1.69 µM | TGI [3]: 3.06 µM | GI50 [4]: 1.75 µM | TGI [4]: 3.31 µM | GI50 [5]: 1.92 µM | TGI [5]: 3.34 µM | GI50 [6]: 1.45 µM | TGI [6]: 2.86 µM | GI50 [7]: 7.04 µM | TGI [7]: 19.5 µM | GI50 [8]: 1.63 µM | TGI [8]: 2.99 µM | GI50 [9]: 1.91 µM | TGI [9]: 3.48 µM | GI50 [10]: 1.76 µM | TGI [10]: 3.14 µM | GI50 [11]: 1.2 µM | TGI [11]: 2.68 µM | GI50 [12]: 1.83 µM | TGI [12]: 3.23 µM | GI50 [13]: 1.74 µM | TGI [13]: 3.13 µM | GI50 [14]: 2.22 µM | TGI [14]: 3.67 µM | GI50 [15]: 1.75 µM | TGI [15]: 3.13 µM | GI50 [16]: 1.8 µM | TGI [16]: 4.21 µM | GI50 [17]: 1.47 µM | TGI [17]: 2.8 µM | GI50 [18]: 1.89 µM | TGI [18]: 3.29 µM | GI50 [19]: 1.57 µM | TGI [19]: 2.91 µM | GI50 [20]: 1.13 µM | TGI [20]: 2.33 µM | GI50 [21]: 1.45 µM | TGI [21]: 2.76 µM | GI50 [22]: 1.79 µM | TGI [22]: 3.24 µM | GI50 [23]: 3.99 µM | TGI [23]: 15.1 µM | GI50 [24]: 1.71 µM | TGI [24]: 3.08 µM | GI50 [25]: 1.76 µM | TGI [25]: 3.21 µM | GI50 [26]: 0.026 µM | TGI [26]: 1.33 µM | GI50 [27]: 1.81 µM | TGI [27]: 3.2 µM | GI50 [28]: 1.63 µM | TGI [28]: 2.98 µM | GI50 [29]: 1.64 µM | TGI [29]: 3 µM | GI50 [30]: < 0.01 µM | TGI [30]: 1.4 µM | GI50 [31]: 1.65 µM | TGI [31]: 3 µM | GI50 [32]: 0.05 µM | TGI [32]: 2.04 µM | GI50 [33]: 1.04 µM | TGI [33]: 2.25 µM | GI50 [34]: 1.67 µM | TGI [34]: 3.05 µM | GI50 [35]: 1.57 µM | TGI [35]: 2.96 µM | GI50 [36]: 1.01 µM | TGI [36]: 2.31 µM | GI50 [37]: 1.1 µM | TGI [37]: 2.29 µM | GI50 [38]: 1.28 µM | TGI [38]: 2.56 µM | GI50 [39]: 1.5 µM | TGI [39]: 2.83 µM | GI50 [40]: 1.55 µM | TGI [40]: 4.34 µM | GI50 [41]: 1.19 µM | TGI [41]: 2.42 µM | GI50 [42]: 1.15 µM | TGI [42]: 6.14 µM | GI50 [43]: 1.3 µM | TGI [43]: 2.58 µM | GI50 [44]: 0.0647 µM | TGI [44]: 1.85 µM | GI50 [45]: 1.98 µM | TGI [45]: 4.64 µM | GI50 [46]: 4.18 µM | TGI [46]: > 100 µM | GI50 [47]: 2.1 µM | TGI [47]: 4.08 µM | GI50 [48]: 1.93 µM | TGI [48]: 3.34 µM | GI50 [49]: 1.25 µM | TGI [49]: 2.53 µM | GI50 [50]: 0.0143 µM | TGI [50]: 1.76 µM | GI50 [51]: 0.0635 µM | TGI [51]: 1.71 µM | GI50 [52]: 1.83 µM | TGI [52]: 3.23 µM | GI50 [53]: 1.45 µM | TGI [53]: 4.67 µM | GI50 [54]: 1.63 µM | TGI [54]: 3.38 µM | GI50 [55]: 1.79 µM | TGI [55]: 3.18 µM
